Test results published in article PMC6500773 (Psychopharmacology, 2018).

What was measured:
hDAT [1] = target: T1, hDAT (Homo sapiens, UniProt Q01959); conditions: relative to maximal METH release; ref Eshleman et al. 2017; cited from earlier work
hNET [2] = target: T2, hNET (Homo sapiens, UniProt P23975); conditions: ref Eshleman et al. 2017, cited from earlier work
hNET [3] = target: T2, hNET; test: biochemical; format: binding; conditions: read-out: Inhibition of [125I]RTI-55 binding Ki ± sem, hNET
hDAT [4] = target: T1, hDAT; test: Inhibition of [3H]DA uptake by HEK-hDAT cells; format: cell-based; conditions: 1/(DAT IC50) divided by 1/(SERT IC50), uptake; higher = more DAT selective
hSERT = hSERT (Homo sapiens, UniProt P31645); conditions: relative to maximal METH release; ref Eshleman et al. 2017; cited from earlier work
Sequence of hSERT (P31645 whole entry): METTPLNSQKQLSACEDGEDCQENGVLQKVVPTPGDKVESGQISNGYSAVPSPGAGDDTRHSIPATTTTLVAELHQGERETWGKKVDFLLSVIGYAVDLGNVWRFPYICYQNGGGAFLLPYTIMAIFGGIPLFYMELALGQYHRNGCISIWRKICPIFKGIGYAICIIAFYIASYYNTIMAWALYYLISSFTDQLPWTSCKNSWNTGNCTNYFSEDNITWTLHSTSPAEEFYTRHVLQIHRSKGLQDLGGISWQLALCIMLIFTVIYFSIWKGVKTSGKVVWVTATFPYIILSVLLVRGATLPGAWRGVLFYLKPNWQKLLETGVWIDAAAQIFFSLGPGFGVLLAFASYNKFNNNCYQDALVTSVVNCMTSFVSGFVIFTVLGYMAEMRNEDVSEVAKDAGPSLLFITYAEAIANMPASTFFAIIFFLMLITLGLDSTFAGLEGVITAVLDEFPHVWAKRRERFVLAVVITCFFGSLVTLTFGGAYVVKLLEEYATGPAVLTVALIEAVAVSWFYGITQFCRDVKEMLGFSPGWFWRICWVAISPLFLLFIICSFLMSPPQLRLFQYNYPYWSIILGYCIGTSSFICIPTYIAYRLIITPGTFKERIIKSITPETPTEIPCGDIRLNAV

hNET [5] = target: T2, hNET; test: cell-based; conditions: read-out: Inhibition of [3H]neurotransmitter uptake IC50 ± sem, hNET [3H]NE
hDAT [6] = target: T1, hDAT; test: Inhibition of [125I]RTI-55 binding, HEK-hDAT membranes; conditions: read-out: Inhibition of [125I]RTI-55 binding Ki ± sem, hDAT; HEK-hDAT membranes

T1 sequence (Q01959 whole entry): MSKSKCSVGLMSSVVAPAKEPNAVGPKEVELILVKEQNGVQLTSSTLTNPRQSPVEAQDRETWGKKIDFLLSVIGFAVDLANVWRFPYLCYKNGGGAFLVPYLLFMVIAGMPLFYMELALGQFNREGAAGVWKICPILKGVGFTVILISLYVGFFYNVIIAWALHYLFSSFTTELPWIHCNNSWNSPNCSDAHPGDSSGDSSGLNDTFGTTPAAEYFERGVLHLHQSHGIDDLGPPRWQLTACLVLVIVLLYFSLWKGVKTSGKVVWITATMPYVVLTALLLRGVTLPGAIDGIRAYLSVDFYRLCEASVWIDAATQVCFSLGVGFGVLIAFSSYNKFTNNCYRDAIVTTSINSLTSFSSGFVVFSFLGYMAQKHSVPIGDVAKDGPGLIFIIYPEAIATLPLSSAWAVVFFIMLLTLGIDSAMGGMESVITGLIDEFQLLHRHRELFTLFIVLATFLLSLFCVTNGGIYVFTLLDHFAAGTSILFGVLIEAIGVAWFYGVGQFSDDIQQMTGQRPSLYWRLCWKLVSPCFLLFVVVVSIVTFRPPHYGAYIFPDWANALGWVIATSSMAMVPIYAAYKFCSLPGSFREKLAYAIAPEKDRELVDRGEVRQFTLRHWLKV
T2 sequence (P23975 whole entry): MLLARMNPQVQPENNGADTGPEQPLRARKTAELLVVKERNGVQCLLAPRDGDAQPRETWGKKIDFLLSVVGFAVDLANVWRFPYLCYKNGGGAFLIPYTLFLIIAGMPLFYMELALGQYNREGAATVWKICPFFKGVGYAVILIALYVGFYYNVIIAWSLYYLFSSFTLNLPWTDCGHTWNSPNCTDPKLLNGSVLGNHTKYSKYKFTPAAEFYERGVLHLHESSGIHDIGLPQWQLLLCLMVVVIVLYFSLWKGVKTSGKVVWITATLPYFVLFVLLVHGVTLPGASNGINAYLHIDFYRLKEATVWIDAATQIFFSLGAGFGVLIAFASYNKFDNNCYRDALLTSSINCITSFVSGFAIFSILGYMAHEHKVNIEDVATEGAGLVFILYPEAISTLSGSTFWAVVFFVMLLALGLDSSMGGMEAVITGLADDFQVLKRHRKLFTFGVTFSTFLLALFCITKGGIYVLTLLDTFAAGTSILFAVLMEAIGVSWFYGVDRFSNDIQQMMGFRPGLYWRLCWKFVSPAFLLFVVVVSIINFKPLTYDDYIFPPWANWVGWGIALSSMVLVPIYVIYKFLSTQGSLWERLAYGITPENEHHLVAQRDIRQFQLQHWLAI

Which “% maximum release ± sem, hDAT [3H]DA” value (hDAT [1]) does the source give for `CNC(C)Cc1ccc2c(c1)OCO2` (centres unmarked) [MDMA, reference compound] here?
Its value is 94 ± 10%.

What about the EC50 (hNET [2]; read-out: Drug-induced release of [3H]neurotransmitter EC50 ± sem, hNET [3H]NE, HEK-hNET cells) of the same compound?
The EC50 was 0.36 ± 0.092 µM.

What about the “% maximum release ± sem, hNET [3H]NE” value (hNET [2]; relative to maximal METH release) of the same compound?
Its value is 147 ± 15%.

What about the Ki (hNET [3]) of the same compound?
Its Ki is 15.8 µM.

What about the “Ratio DAT/SERT” value (hDAT [4]) of the same compound?
The value was 0.25.

What about the “% maximum release ± sem, hSERT [3H]5-HT” value (hSERT) of the same compound?
The value was 85.1 ± 7.8%.

What about the IC50 (hNET [5]) of the same compound?
The IC50 was 0.63 µM.

What about the Ki (hDAT [6]) of the same compound?
The Ki was 31 ± 4.9 µM.
